The OligoGym collection
Values joined by “and” are separate entries in the source; they are usually repeats but may differ in a detail not shown here. Equal values may be shown once. These antisense oligonucleotides have a phosphorothioate backbone; sugars and methylation of C are not fully specified.

What was measured:
Conditions in all cases: ASO
[1] = target: ICAM1
[2] = target: VCAM1
[3] = target: PDPK1
Further: test concentration or dose not given here.

Sequence | remaining target (mRNA or protein) (fraction of control) [1] | remaining target (mRNA or protein) (fraction of control) [3] | other results
GACACTCAATAAATAGCTGGT | 0.5 |  | 
GAGGAGCTCAGCGTCGACTG | 0.83 and ≥ 1 |  | 
GAGGCTGAGGTGGGAGGA | 0.98 |  | 
GAGTAGCAGAGGAGC | 0.61 |  | 
GATGCTACACATGTC | 0.58 |  | 
GCAATCTTGCTATGGCATAA |  |  | remaining target (mRNA or protein) (fraction of control) [2]: 0.48
GCCAGTGAGGCCCG |  |  | remaining target (mRNA or protein) (fraction of control) [2]: 0.35
GCCCATTGCAGGGCCAGGGC | 0 |  | 
GCCTGGGAGGGTATTCAGCT |  |  | remaining target (mRNA or protein) (fraction of control) [2]: 0.58
GCCTGGGAGGGTATTCAGCTC |  |  | remaining target (mRNA or protein) (fraction of control) [2]: 0.3
GCGTCGACTGGGGCGCGTGAT | 0.95 |  | 
GCTACACATGTCTATGGAGGG | 0.35 |  | 
GCTTTCCCGGAAA | 0.82 |  | 
GCTTTCCCGGAAACCTCGCGC | 0.48 |  | 
GGAAACCTCGCGC | 0.91 |  | 
GGACTTCTCCGTGAGCAG |  | 0.28 | 
GGAGCCATAGCGAGGC | 0.35 |  | 
GGAGCTCAGCGTCGA | 0.85 |  | 
GGAGGCTGGGCATGCTGC |  | 0.16 | 
GGCAGAAATGTATGTGGGTGG | 0.68 |  | 
GGCATTTTAAGTTGCTGTCG |  |  | remaining target (mRNA or protein) (fraction of control) [2]: 0.34
GGCCACATTGGGAAAGTTGC |  |  | remaining target (mRNA or protein) (fraction of control) [2]: 0.29
GGCTGAGGTTG | 0.9 |  | 
GGGCCACTTCTTCTGTAA | 0.33 |  | 

Sequence | remaining target (mRNA or protein) (fraction of control) [1] | remaining target (mRNA or protein) (fraction of control) [3] | other results
GGGCGCGTGATCCTTATAGC | 0.8 |  | 
GGGGCGGTGCTGCTTTCCCGG | ≥ 1 |  | 
GGGTTGAAGCCATTGCAGGG | 0.45 |  | 
GGTACAGGTCTCATCGAA |  | 0.1 | 
GGTATTCAGCTCCTGAAG |  |  | remaining target (mRNA or protein) (fraction of control) [2]: 0.69
GGTCTCTTGCCTTAGGGA |  | 0.37 | 
GGTGTGCTTTAAGAGGTC |  | 0.6 | 
GGTTCCAAAACCCTT |  |  | remaining target (mRNA or protein) (fraction of control) [2]: 0.42
GGTTGCAACTCTGAG | 0.36 |  | 
GTCCCTGTGAATGATGCC |  | 0.24 | 
GTCTTTGTTGTTTTCTCTTCC |  |  | remaining target (mRNA or protein) (fraction of control) [2]: 0.41
GTGAGGAGGAGGACGAAG |  | 0.7 | 
GTGCTGGACTCAGTCTGG |  | 0.51 | 
GTTCAAAGGAGTTCGAGT |  | 0.5 | 
GTTTCCGCCAGCCTGCTT |  | ≥ 1 | 
TAAACCCTTCCGCTTATC |  | ≥ 1 | 
TAAAGCTTAACAAAGAAG |  | ≥ 1 | 
TAAGTCCAGTTCAAAGGA |  | 0.75 | 
TATGATATGTCGCTTCTC |  | 0.42 | 
TCCTGTTAGGCGTGTGGA |  | 0.53 | 
TCTGAGTAGCAGAGGAGCTCA | 0.3 |  | 
TCTGAGTAGCAGAGGAGCTCAG | 0.33 |  | 
TCTGGAGAAACGTACTGC |  | ≥ 1 | 
TGAACATATCAAGCATTAGC |  |  | remaining target (mRNA or protein) (fraction of control) [2]: 0.53

Sequence | remaining target (mRNA or protein) (fraction of control) [1] | remaining target (mRNA or protein) (fraction of control) [3] | other results
TGAGCAGCTCTGGAGAAA |  | 0.85 | 
TGATCCTTTATAGCGCTAGCC | 0.9 |  | 
TGCATCCCCCAGGCCACCAT | 0 |  | 
TGCCAGTCCACATAGTGTTT | 0.25 |  | 
TGCCCATCAGGGCAGTTTGA | 0.4 |  | 
TGCTTACCCTCCCACAGCAG | 0.1 |  | 
TGGACAAAGAAAGTTTTA |  | ≥ 1 | 
TGGATGTGCATATCTTCA |  | 0.81 | 
TGGCATCTAAAACCAAAA |  | ≥ 1 | 
TGGCTGGCAGGTGGTCTG |  | 0.2 | 
TGGGAGCCATAGCGAG | 0.55 |  | 
TGGGAGCCATAGCGAGGC | 0.38 |  | 
TTACCATTGACATAAAGTGTT |  |  | remaining target (mRNA or protein) (fraction of control) [2]: 0.52
TTGAGAAAGCTTTATTAACT | ≥ 1 |  | 
TTGCTGTTCCAAAATCTG |  | ≥ 1 | 
TTGGCCCTGGCTTGTTTG |  | 0.23 | 
TTGGGACAATGTCTCAGCTT | 0.25 |  | 
TTTAAGCAATCTTGCTATGGC |  |  | remaining target (mRNA or protein) (fraction of control) [2]: 0.81
TTTAAGTAGTTCTCCATT |  | 0.39 | 
TTTATGATATGTCGCTTC |  | ≥ 1 | 
TTTGTGTCCCACCTG |  |  | remaining target (mRNA or protein) (fraction of control) [2]: 0.1
TTTGTTGACAGGATCCAC |  | 0.72 | 
